Assay results: ChEMBL document CHEMBL1201862, “PubChem BioAssay data set” (2004)
Active and inactive are the calls of the source.

Tests used:
[1] = molecular target: Large T antigen (Simian virus 40, UniProt P03070); type: functional, Betapolyomavirus macacae;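 note: Confirmatory-stage PubChem screen for compounds that inhibit SV40 T antigen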
[2] = DRD fibroblast viability loss – cell-based, non-viral oncogenic, luminescence, dose response (AID 1934); type: functional; conditions: Homo sapiens
[3] = system: BJ; assay: cells; type: functional, cell-based; conditions: Homo sapiens
[4] = system: BJ; assay: BJ-TERT fibroblast viability loss – cell-based, RAS-independent, luminescence, dose response (AID 1933); type: functional; conditions: Homo sapiens
[5] = system: BJ; assay: BJ-TERT-LT-ST fibroblast viability loss – cell-based, RAS-independent, luminescence, dose response (AID 1935); type: functional; conditions: Homo sapiens;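 note: BJ fibroblasts immortalized with TERT plus LT and ST oncogenes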
[6] = molecular target: T1, Heat shock factor protein 1 (Mus musculus, UniProt P38532); assay: decrease of HSF1-responsive luciferase luminescence – cell-based, NIH3T3, dose retest, confirmation (AID 2382); type: functional;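 note: NIH3T3 fibroblasts with HSF1-driven luciferase reporter stressed by proteasome inhibitor MG132; luminescence from HSF1-driven luciferase expression after 8 hours of MG132 stress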
T1 sequence (P38532 whole entry): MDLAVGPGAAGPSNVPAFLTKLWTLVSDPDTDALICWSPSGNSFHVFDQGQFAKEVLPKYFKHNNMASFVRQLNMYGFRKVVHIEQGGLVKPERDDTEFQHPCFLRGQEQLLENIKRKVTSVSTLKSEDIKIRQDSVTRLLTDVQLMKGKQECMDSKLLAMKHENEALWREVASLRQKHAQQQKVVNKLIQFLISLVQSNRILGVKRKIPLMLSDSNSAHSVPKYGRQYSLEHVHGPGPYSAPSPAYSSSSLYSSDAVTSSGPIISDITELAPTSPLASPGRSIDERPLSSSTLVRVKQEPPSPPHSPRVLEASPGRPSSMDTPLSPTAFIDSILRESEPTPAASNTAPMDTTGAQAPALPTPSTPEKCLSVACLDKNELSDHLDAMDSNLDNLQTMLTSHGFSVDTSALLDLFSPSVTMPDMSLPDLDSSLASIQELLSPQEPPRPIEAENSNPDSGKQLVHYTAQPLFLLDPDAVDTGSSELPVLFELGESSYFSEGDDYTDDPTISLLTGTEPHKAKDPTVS

[7] = molecular target: Nonstructural protein 1 (Influenza A virus, UniProt Q194T2); type: functional, Influenza A virus (A/California/07/2009(H1N1))
[8] = cells; type: functional
[9] = THP-1 cell cytotoxicity, dose response, cytotoxicity control for non-replicating M. tuberculosis project (AID 489025); type: functional
[10] = molecular target: T2, Leucine aminopeptidase (Plasmodium falciparum 3D7, UniProt Q8IL11); assay: P. falciparum M17LAP inhibitors, primary screen, biochemical, fluorogenic H-Leu-NHMec substrate, 1536-well (AID 1619); type: functional
T2 sequence (Q8IL11 whole entry): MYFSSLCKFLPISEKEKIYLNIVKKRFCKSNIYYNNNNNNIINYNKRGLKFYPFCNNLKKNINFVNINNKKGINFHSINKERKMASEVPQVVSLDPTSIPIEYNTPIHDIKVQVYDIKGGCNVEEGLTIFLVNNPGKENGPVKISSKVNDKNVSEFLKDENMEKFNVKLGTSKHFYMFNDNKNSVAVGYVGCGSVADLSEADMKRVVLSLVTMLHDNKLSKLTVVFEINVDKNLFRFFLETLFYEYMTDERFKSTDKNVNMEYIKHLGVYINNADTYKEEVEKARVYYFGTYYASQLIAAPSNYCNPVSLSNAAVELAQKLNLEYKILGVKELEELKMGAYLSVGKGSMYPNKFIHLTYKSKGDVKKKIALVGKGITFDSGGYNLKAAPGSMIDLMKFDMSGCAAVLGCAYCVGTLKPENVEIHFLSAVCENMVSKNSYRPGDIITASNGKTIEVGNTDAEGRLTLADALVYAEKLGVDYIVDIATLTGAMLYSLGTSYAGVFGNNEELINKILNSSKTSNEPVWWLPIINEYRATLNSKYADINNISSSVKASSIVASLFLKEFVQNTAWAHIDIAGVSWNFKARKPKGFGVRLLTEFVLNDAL

[11] = molecular target: T3, Protein RecA (Mycobacterium tuberculosis, UniProt P9WHJ3); assay: Fluorescence Cell-Free Homogeneous Dose Retest to Identify Inhibitors of RecA-Intein Splicing Activity. [Related pubchem assays (depositor defined):AID2097, AID2223, AID489010, AID492950]; type: functional
T3 sequence (P9WHJ3 whole entry): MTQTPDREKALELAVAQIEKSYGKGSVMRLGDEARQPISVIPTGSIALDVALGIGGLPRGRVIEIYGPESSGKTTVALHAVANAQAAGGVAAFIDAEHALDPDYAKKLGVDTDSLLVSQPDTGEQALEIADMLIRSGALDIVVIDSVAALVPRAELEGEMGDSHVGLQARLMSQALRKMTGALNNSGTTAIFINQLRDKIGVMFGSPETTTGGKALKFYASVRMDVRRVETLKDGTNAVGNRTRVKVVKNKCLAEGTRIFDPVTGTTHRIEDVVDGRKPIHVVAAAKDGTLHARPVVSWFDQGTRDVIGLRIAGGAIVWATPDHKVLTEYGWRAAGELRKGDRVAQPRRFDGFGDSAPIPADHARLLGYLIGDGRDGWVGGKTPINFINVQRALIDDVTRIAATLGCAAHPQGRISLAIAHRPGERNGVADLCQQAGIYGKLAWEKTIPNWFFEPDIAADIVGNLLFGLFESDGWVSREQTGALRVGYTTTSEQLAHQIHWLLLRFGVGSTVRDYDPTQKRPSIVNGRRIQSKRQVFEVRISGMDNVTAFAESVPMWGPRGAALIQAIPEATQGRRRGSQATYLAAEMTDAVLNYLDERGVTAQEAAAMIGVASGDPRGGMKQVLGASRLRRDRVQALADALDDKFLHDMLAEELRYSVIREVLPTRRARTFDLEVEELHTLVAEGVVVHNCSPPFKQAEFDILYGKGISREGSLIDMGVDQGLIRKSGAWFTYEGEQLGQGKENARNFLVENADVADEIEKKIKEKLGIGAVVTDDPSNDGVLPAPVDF

[12] = NIH3T3 cell viability loss – ATP luminescence, mouse fibroblasts, counter-screen, dose response (AID 2010); type: functional, cell-based;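 note: cells exposed to compound for about 90 hours before reading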
[13] = Trypanosoma cruzi growth suppression in host cells – NIH3T3 host cells, beta-gal luminescence, confirmation (AID 2044); type: functional, cell-based;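 note: intracellular parasites grown in NIH/3T3 mouse fibroblasts as host cells; luminescent beta-galactosidase reporter signal from transgenic T. cruzi replicating inside host cells; inhibitors lower the luminescence signal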
[14] = molecular target: FAD-linked sulfhydryl oxidase ALR (Homo sapiens, UniProt P55789); assay: ALR-catalysed DTT oxidation blockers – biochemical, H2O2 detection, luminescence, cherry-pick, dose response (AID 493248)
[15] = molecular target: T4, Protein skinhead-1 (Caenorhabditis elegans, UniProt P34707); type: functional
T4 sequence (P34707 whole entry): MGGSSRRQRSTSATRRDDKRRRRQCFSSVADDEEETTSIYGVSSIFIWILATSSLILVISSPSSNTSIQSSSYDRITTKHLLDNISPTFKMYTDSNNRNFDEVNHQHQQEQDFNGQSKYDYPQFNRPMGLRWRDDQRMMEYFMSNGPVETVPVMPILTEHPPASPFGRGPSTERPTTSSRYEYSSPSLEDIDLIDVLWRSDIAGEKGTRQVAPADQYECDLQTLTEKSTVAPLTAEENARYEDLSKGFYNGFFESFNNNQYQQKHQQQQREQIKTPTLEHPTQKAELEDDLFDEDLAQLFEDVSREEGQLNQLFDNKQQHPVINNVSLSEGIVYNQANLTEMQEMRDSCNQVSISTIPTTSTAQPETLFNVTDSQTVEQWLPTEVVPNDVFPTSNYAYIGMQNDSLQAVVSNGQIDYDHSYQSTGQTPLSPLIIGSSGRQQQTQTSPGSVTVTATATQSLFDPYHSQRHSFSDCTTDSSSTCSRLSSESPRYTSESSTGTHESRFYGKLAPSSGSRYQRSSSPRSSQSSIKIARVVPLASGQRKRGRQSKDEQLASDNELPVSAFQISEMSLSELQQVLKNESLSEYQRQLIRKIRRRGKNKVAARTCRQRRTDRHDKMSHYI

[16] = viability of uninfected HEp-2 cells – cell-based, HTS, cytotoxicity control for RSV inhibitor project, dose response (AID 2410); type: functional; conditions: human respiratory syncytial virus
[17] = molecular target: T5, Rac GTPase-activating protein 1 (Homo sapiens, UniProt Q9H0H5); assay: blockers of MgcRacGAP-driven Rac1 GTP hydrolysis – biochemical, ADP Hunter fluorescence, primary and confirmatory, confirmation (AID 624330); type: functional
T5 sequence (Q9H0H5 whole entry): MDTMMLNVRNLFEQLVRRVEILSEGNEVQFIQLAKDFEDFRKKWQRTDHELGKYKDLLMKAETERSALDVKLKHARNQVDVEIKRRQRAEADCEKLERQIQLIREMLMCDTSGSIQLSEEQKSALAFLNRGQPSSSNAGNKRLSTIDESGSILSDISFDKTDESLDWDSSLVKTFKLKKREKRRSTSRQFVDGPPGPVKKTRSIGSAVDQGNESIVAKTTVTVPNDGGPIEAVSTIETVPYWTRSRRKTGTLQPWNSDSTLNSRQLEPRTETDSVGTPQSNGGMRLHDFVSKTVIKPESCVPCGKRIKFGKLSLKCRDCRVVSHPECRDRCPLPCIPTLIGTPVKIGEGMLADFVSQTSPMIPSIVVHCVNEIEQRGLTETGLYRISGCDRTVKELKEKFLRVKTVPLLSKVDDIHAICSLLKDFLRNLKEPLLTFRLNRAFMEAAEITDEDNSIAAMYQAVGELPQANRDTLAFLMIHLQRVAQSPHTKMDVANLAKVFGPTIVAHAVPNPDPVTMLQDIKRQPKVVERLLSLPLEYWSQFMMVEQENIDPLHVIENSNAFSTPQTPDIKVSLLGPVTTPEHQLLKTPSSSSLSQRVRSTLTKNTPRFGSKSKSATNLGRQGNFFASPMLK

[18] = non-specific 3'UTR reporter inhibition in Clone20-Shn3RL – cell-based, Renilla luciferase, cherry-picked, counter-screen for Shn3 inhibitor project, dose response (AID 624133); type: functional
[19] = reduction of Shn3 3'UTR-driven luciferase in osteoblasts – cell-based, Clone20 osteoblasts, firefly luciferase, cherry-picked, dose response (AID 624132); type: functional;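 note: firefly luciferase luminescence from reporter carrying the Shn3 3'UTR in osteoblasts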
[20] = Luminescence Cell-Based Dose Retest to Confirm Inhibitors of Cancer Stem Cells. [Related pubchem assays (depositor defined):AID2717, AID2721]; type: functional; conditions: Homo sapiens

Large T antigen, sequence (P03070 whole entry): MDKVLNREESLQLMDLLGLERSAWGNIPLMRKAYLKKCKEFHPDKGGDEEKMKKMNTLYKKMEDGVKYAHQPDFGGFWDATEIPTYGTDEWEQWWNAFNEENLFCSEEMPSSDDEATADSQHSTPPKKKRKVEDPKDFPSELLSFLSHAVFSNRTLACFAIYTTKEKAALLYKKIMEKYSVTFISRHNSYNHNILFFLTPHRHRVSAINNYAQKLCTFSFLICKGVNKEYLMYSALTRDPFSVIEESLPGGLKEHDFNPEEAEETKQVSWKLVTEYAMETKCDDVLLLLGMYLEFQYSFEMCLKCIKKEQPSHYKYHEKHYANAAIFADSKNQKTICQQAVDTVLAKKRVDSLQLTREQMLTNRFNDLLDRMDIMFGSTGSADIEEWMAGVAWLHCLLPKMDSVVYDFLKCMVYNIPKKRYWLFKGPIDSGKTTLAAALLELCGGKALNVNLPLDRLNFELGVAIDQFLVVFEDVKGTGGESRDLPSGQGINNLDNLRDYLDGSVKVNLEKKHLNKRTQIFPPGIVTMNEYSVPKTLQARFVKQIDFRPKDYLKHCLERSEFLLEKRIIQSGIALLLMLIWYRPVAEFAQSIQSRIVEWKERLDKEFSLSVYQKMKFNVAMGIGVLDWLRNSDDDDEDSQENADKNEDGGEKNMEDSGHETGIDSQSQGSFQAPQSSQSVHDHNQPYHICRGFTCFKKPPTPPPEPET
Nonstructural protein 1, sequence (Q194T2 whole entry): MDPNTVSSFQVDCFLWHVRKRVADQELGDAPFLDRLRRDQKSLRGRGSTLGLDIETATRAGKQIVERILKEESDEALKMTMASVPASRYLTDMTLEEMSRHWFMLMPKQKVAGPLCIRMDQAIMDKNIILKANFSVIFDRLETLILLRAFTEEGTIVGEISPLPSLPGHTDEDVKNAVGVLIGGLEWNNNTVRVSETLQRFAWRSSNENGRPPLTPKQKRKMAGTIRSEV
FAD-linked sulfhydryl oxidase ALR, sequence (P55789 whole entry): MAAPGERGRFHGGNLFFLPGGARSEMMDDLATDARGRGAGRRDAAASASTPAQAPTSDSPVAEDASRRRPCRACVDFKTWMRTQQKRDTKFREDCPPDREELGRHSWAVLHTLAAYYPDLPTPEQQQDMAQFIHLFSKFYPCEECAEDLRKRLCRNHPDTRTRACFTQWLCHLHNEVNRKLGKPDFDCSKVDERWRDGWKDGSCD

## O=C(Nc1ccc(Nc2ccccc2)cc1)N1CCOCC1
[1]
  IC50: 7.43 µM (active)

## CC1=CC(C)(C)N2C(=O)C(=O)c3cc(OC(=O)c4ccco4)cc1c32
[2]
  EC50: 11.2 µM (inconclusive)
[3]
  EC50: 11.6 µM (active)
[4]
  EC50: > 150 µM (not active)
[5]
  EC50: 11.3 µM (inconclusive)

## Cc1ccc(OCC(=O)NCCNC(=O)c2ccco2)cc1C
[6]
  EC50: > 195 µM (not active)

## Cc1cc(C)cc(-n2c(C)cc(C(=S)N3CCOCC3)c2C)c1
[7]
  IC50: 95.6 µM (active)

## O=C(c1ccccc1)c1ccc(-n2ccnc2)c([N+](=O)[O-])c1
[2]
  EC50: > 150 µM (not active)
[3]
  EC50: > 150 µM (not active)
[4]
  EC50: > 150 µM (not active)
[5]
  EC50: > 150 µM (inconclusive)

## COc1ccc(S(=O)(=O)N2CCCCCC2)cc1C(=O)OCC(=O)NC(C)(C)C
[6]
  EC50: > 195 µM (not active)

## COc1ccc(N2C(=O)c3ccccc3NC2c2ccc(OC)c(Cn3cc([N+](=O)[O-])cn3)c2)cc1 (centres undefined)
[6]
  EC50: > 195 µM (not active)

## CCOc1ccc2c(c1)-c1c(ssc1=S)C(C)(C)N2C
[7]
  IC50: 12.8 µM (active)

## Cc1ccc(NC(=O)COc2ccc(-n3ccnc3)cc2)cc1Cl
[8]
  IC50: 25.5 µM (active)
[9]
  CC50: > 40 µM (active)

## Cc1oc(-c2cc3c(cc2Cl)OCO3)nc1CN1CCCC1c1ccc(F)cc1 (centres undefined)
[6]
  EC50: > 195 µM (not active)

## CC(C)[C@H](NC(=O)Nc1ccc(Oc2ccccc2)cc1)C(=O)O
[10]
  IC50: 15.7 µM (active)
[11]
  EC50: > 380 µM (inactive)

## Cc1ccc(C(=O)NCC(=O)NCC(=O)OCC(=O)c2ccc(F)cc2)cc1
[6]
  EC50: > 195 µM (not active)

## Cc1ccc2[nH]c3nc(NN)nnc3c2c1
[7]
  IC50: 13.5 µM (active)

## Cc1nc2cc(N=NN(C)C)ccc2[nH]1
[1]
  IC50: > 100 µM (active)

## Cc1ncc([N+](=O)[O-])n1CC(=O)Nc1ccc(F)cc1
[6]
  EC50: 12.3 µM (active)

## COc1ccc2[nH]c(C)c(CCN(Cc3cccs3)C(S)=Nc3ccccc3)c2c1
[12]
  EC50: > 60 µM (not active)
[13]
  EC50: 2.82 µM (active)
[7]
  IC50: > 100 µM (active)

## CCN1C(=O)CC(N2CCC(Nc3ccc(OC)cc3)CC2)C1=O (centres undefined)
[1]
  IC50: 57.7 µM (active)
[14]
  AC50: 2.09 µM (active)

## CCOc1ccc(CC(=O)N2CCC3(CC2)NCCc2[nH]cnc23)cc1
[6]
  EC50: > 195 µM (not active)

## O=C(Nc1nccs1)c1ccc(-c2ccc(Cl)cc2)o1
[8]
  IC50: 25.6 µM (active)
[15]
  IC50: > 100 µM (inactive)
[9]
  CC50: > 40 µM (active)
[16]
  CC50: > 50 µM (active)

## COc1cc2c(cc1N=C(S)Nc1ccccc1C)oc1ccccc12
[1]
  IC50: 56.4 µM (active)
[17]
  IC50: 83.9 µM (active)

## Cc1cc(-c2ccc(N=Nc3c(S(=O)(=O)O)cc4cc(S(=O)(=O)O)cc(N)c4c3O)c(C)c2)ccc1N=Nc1c(S(=O)(=O)O)cc2cc(S(=O)(=O)O)cc(N)c2c1O
[1]
  IC50: 2.38 µM (active)

## CN(C)S(=O)(=O)c1cccc(/N=c2\scc(-c3ccc4c(c3)NC(=O)CO4)n2CC2CCCO2)c1 (centres undefined)
[18]
  AC50: 22.5 µM (active)
[19]
  AC50: 14 µM (active)

## CCCS(=O)(=O)c1c(S(=O)(=O)CCC)c2c(C)cccn2c1C(=O)N/N=C/c1cc(O)cc(O)c1
[2]
  EC50: 27 µM (active)
[20]
  AC50: 2.52 µM (active)
[3]
  EC50: 20.2 µM (active)
[4]
  EC50: 23.5 µM (active)
[5]
  EC50: 18.1 µM (active)

## Cc1ccc(S(=O)(=O)NC2=C(N3CCN(Cc4ccccc4)CC3)C(=O)c3ccccc3C2=O)cc1
[7]
  IC50: 22.4 µM (active)
